{"source": "patent US11166891B2", "about": "“Bis phenyl hexa trien derivatives, preparation method thereof, and composition for skin whitening containing the same as an active ingredient” (Korea Research Institute of Chemical Technology, priority 2018, dated 2021)", "key": {"[1]": {"experiment": "Antioxidative effect, DPPH radical scavenging activity test", "conditions": "37° C., 30 minutes, FIG. 5", "method": "The antioxidative effect was evaluated by 2,2-diphenyl-1-picrylhydrazyl (DPPH) radical scavenging activity test.\nDimethyl sulfoxide (DMSO), vitamin C and the compounds of example and comparative examples 1˜4 were added to a 96-well plate at each designated concentration, and 200 μL of 200 μM DPPH methanolic solution was added to each well. The plate was shaken gently to mix them all, followed by reaction at 37° C. for 30 minutes. Then, OD515 was measured. DMSO was used as the control for the measurement of antioxidative effect and vitamin C was used as the positive control for the measurement of antioxidative effect."}, "[2]": {"system": "B16F10 melanoma cells", "experiment": "Cytotoxicity, MTT assay", "assay_type": "cell-based", "conditions": "48 hours; for cytotoxicity: at the concentration of 10 μM or more", "method": "B16F10 melanoma cells were distributed in a 96-well plate at the density of 2×10^3 cells/well. The cells were cultured in DMEM supplemented with 10% fetal bovine serum (FBS) at 37° C. in 5% CO2 for 24 hours. The cells were exposed on the compounds of example and comparative examples 1˜4 at the set concentration each for 48 hours. MTT assay was performed to evaluate cytotoxicity. To perform MTT assay, MTT solution was added to the cells, followed by reaction for 2 hours. Then, DMSO was added thereto to dissolve formazan crystals, followed by measurement of OD570."}, "[3]": {"system": "MITF (microphthalmia-associated transcription factor) gene expression in B16F10 melanoma cells", "experiment": "Inhibition of MITF gene expression (real-time PCR)", "assay_type": "cell-based", "conditions": "α-MSH 10 nM, compound 2 μM, 72 hours, FIG. 3", "method": "(§1) B16F10 melanoma cells were distributed in a 6-well plate, to which α-MSH (10 nM) (melanin synthesis inducing substance, alpha-melanocyte-stimulating hormone) and the compounds of example and comparative examples 1˜4 were treated at the concentration of 2 μM each, followed by exposure-culture for 72 hours. Then, the cells were harvested and total RNA of the cells was extracted using RNeasy mini kit (Qiagen). CDNA was synthesized by using M-MLV reverse transcriptase, 5X first-strand butter, dNTP mix and oligo(dT) primer (Thermo Fisher Scientific). The cDNA product, the primers of each gene and LightCycler® MultiplexMasters (Roche) were mixed, followed by SYBR Green-based real-time PCR using LightCycler® NanoInstrument (Roche). To relatively evaluate the level of tyrosinase mRNA expression, the expression was corrected based on the level of β-actin mRNA expression. The PCR conditions for gene amplification are as follows.\nEvaluation of MITF gene expression was performed by the same manner as described in the evaluation of tyrosinase gene expression in experimental example 1. Information on the primers used for the amplification of MITF gene expression is as follows."}, "[4]": {"system": "TRP 2 (tyrosinase-related protein 2) gene expression in B16F10 melanoma cells", "experiment": "Inhibition of TRP 2 gene expression (real-time PCR)", "assay_type": "cell-based", "conditions": "α-MSH 10 nM, compound 2 μM, 72 hours, FIG. 4b", "method": "as §1\n(§2) Evaluation of TRP 1 and TRP 2 gene expression was performed by the same manner as described in the evaluation of tyrosinase gene expression. Information on the primers used for the amplification of TRP 1 and TRP 2 gene expression is as follows."}, "[5]": {"system": "TRP 1 (tyrosinase-related protein 1) gene expression in B16F10 melanoma cells", "experiment": "Inhibition of TRP 1 gene expression (real-time PCR)", "assay_type": "cell-based", "conditions": "α-MSH 10 nM, compound 2 μM, 72 hours, FIG. 4a", "method": "as §1, §2"}, "[6]": {"system": "tyrosinase gene expression in B16F10 melanoma cells", "experiment": "Inhibition of tyrosinase gene expression (real-time PCR)", "assay_type": "cell-based", "conditions": "α-MSH 10 nM, compound 2 μM, 72 hours, mRNA corrected to β-actin, FIG. 2", "method": "as §1\nDenaturation: 95° C., 10 seconds\nAnnealing: melting point of each primer, 10 seconds\nExtension/Detection: 72° C., 20 seconds\nTotal cycle number: 45 cycles\nInformation on the primers used for the amplification of tyrosinase gene expression and information on the primers for β-actin used as a correction gene are as follows."}, "[7]": {"system": "mushroom tyrosinase", "experiment": "Tyrosinase activity inhibition (L-DOPA oxidation)", "assay_type": "biochemical", "conditions": "pH 7.0, FIG. 8; for inhibitory effect on tyrosinase activity: 6.25 μM (equal concentration)", "method": "Samples were dissolved in an organic solvent such as ethanol, which were diluted in a proper buffer such as 100 mM phosphate buffer (pH 7.0). Those samples diluted at a proper concentration in order to inhibit the activity to DOPA oxidation reaction were used as the sample solutions for the experiment. 850 μL of 100 mM phosphate buffer (pH 7.0), 50 μL of the sample solution and 50 μL of mushroom tyrosinase (2000 U/ml) were loaded in a test tube in that order, followed by reaction at 37° C. for 5 minutes. 50 μL of 0.06 mM L-DOPA (L-3,4-dihydroxyphenylalanine) solution was added thereto, and then OD475 was measured using a microplate reader. After reacting the solution at 37° C. for 15 minutes, OD475 was measured again. DMSO was used as the control and Kojic acid was used for the positive control.\nTyrosinase activity inhibition rate (%)=[(A-B)/A]×100\nA: difference of OD in the control group (OD after the reaction—OD before the reaction)\nB: difference of OD in the experimental group (OD after the reaction—OD before the reaction)"}, "[8]": {"system": "melanin synthesis in B16F10 melanoma cells", "experiment": "Melanin synthesis inhibition", "assay_type": "cell-based", "conditions": "α-MSH 10 nM, 72 hours", "method": "B16F10 melanoma cells were distributed in a 96-well plate at the density of 3×10^5 cells/well. The cells were cultured in DMEM supplemented with 10% FBS at 37° C. in 5% CO2 for 24 hours. […] The cells were harvested, followed by dissolving in 1 N NaOH by heating at 80° C. for 20 minutes. Then, OD490 was measured. The melanin synthesis inhibition rate was calculated as follows.\nMelanin inhibition rate (%)=[(C−S)/C]×100\nC: OD when α-MSH alone was treated.\nS: OD when each sample was treated."}}, "data": [{"smiles": "COc1cccc(/C=C/C=C/C=C/c2cccc(OC)c2OC)c1OC", "note": "[compound of example, (1E,3E,5E)-1,6-bis(2,3-dimethoxyphenyl)hexa-1,3,5-triene]", "values": [{"measurement": "antioxidative effect (DPPH radical scavenging activity)", "setting": "[1]; 40 μM, compared with comparative examples 1˜4", "result": "excellent antioxidative effect"}, {"measurement": "antioxidative effect (DPPH radical scavenging activity)", "setting": "[1]; about 25 μM, compared with comparative examples 1˜3", "result": "excellent antioxidative effect"}, {"measurement": "cell survival rate", "setting": "[2]; concentration increased from 5 μM to 15 μM, FIG. 6", "result": "≥ 80", "unit": "%"}, {"measurement": "inhibitory effect on MITF gene expression (relative expression level)", "setting": "[3]", "result": "excellent in inhibiting MITF gene expression"}, {"measurement": "inhibitory effect on TRP 2 gene expression (relative expression level)", "setting": "[4]", "result": "excellent in inhibiting TRP1 and TRP2 gene expression"}, {"measurement": "inhibitory effect on TRP 1 gene expression (relative expression level)", "setting": "[5]", "result": "excellent in inhibiting TRP1 and TRP2 gene expression"}, {"measurement": "inhibitory effect on tyrosinase gene expression (relative expression level)", "setting": "[6]", "result": "excellent in inhibiting tyrosinase gene expression"}, {"measurement": "reduction of tyrosinase activity", "setting": "[7]; 6.25 μM", "result": "approximately 20%"}, {"measurement": "melanin content in the cells", "setting": "[8]; versus comparative examples, FIG. 7", "result": "significantly lower"}, {"measurement": "melanin content in media and cells", "setting": "[8]; compound 1 μM, versus comparative examples 1˜4, FIG. 7", "result": "lower in both media and cells"}]}, {"smiles": "COc1ccc(/N=C/c2ccc(O)cc2O)cc1", "note": "[compound 2, (E)-4-((4-methoxyphenylimino)methyl)benzene-1,3-diol]", "values": [{"measurement": "inhibitory effect on tyrosinase activity", "setting": "[7]", "result": "did not show inhibitory effect on tyrosinase activity"}]}, {"smiles": "COc1ccc(/C=C/C=C/C=C/c2ccc(OC)c(O)c2)cc1O", "note": "[compound 4, 5,5′-((1E,3E,5E)-hexa-1,3,5-triene-1,6-diyl)bis(2-methoxyphenol)]", "values": [{"measurement": "cytotoxicity", "setting": "[2]", "result": "strong cytotoxicity"}]}, {"smiles": "COc1cc(/C=C/C=C/C=C/c2ccc(O)c(OC)c2)ccc1O", "note": "[comparative example 1, 4,4′-((1E,3E,5E)-hexa-1,3,5-triene-1,6-diyl)bis(2-methoxyphenol), reference compound]", "values": [{"measurement": "cytotoxicity", "setting": "[2]", "result": "strong cytotoxicity"}, {"measurement": "inhibitory effect on tyrosinase gene expression (relative expression level)", "setting": "[6]", "result": "hardly had inhibitory effect on the expression of tyrosinase gene"}]}, {"smiles": "Oc1ccc(/C=C/C=C/C=C/c2ccc(O)cc2)cc1", "note": "[compound 3, 4,4′-((1E,3E,5E)-hexa-1,3,5-triene-1,6-diyl)diphenol]", "values": [{"measurement": "cytotoxicity", "setting": "[2]", "result": "strong cytotoxicity"}, {"measurement": "inhibitory effect on tyrosinase activity", "setting": "[7]", "result": "did not show inhibitory effect on tyrosinase activity"}]}]}
